Assay results reported in ChEMBL document CHEMBL1139024, “Synthesis and evaluation of an N-acylated photoactivatable analogue of glutathione as probe for glutathione-utilizing enzymes” (Bioorg Med Chem Lett, 2006).

Test: Inhibition of glutathione S-transferase in rat liver

## O=C(O)CNC(=O)[C@H](CS)NC(=O)CC[C@H](NC(=O)c1ccc(C(=O)c2ccccc2)cc1)C(=O)O
  IC50: 1000 µM
